In EP1136472A1, “ARYL- AND HETEROARYLAMIDES OF CARBOALKOXYSULFANILIC ACIDS” (priority 1998, dated 2000):

Tests used:
[1] = tested on: Human's platelet aggregation; assay: Antiaggregational properties, ADP-induced platelet aggregation in platelet-rich plasma; assay type: cell-based; settings: adenosine diphosphate 2.5 µmol/l
Experimental: Human's platelet aggregation was investigated in plasma of healthy 50±3 years donors that was enriched by thrombocytes, by means of aggregometer FRM-1. The substance under investigation was added to blood plasma samples (100 µg/ml) before inducing aggregation by means of adenosine diphosphate (2.5 µmol/l). Magnitude of the maximum non-reversible platelet aggregation in the control samples (solvent) was adopted as 100%, and that in tested samples was counted as percentage compared to the control. Inhibition of the aggregation by more than 50% at the given concentration was evaluated as meaningful inhibition. Adenosine (5 µg/ml) and aspirin (9 µg/ml), that inhibit aggregation at these concentrations by 100%, were utilized as reference agents.

[2] = tested on: Herpes Simplex virus of the type I (HSV-I /Leningrad/248/88); assay: Antiviral effect on Herpes Simplex virus (cytopathogenic action on Vero cells); assay type: cell-based; settings: compound concentration of 100 µg/ml; for Quantity of the unchanged cells: number of cells in 100 visual fields, after 36 hours; for percentage of protection: protection of cells from virus as compared to the control of cell culture
[3] = assay type: in vivo; settings: mice, observed 72 hours, 300 was the maximally utilized
Experimental: Tested substance was introduced perorally (in dose of 300 mg/kg) through a gastric tube or intraperitoneally (in dose of 100 mg/kg) to no-breed white mice with mass 18-20 g (each tested group consisted of 3 males and 3 females). Then the mouse state was observed during 72 hours. Absence of symptoms characteristic of toxic effects, or absence of animal death during the given time allows to make a conclusion that the toxicity of the tested substance is low.

C.trachomatis D323 = assay: Antichlamydial activity in infected cell culture (McCoy and L929); assay type: cell-based, Chlamydia trachomatis; settings: 100 mg/l
Experimental: The antichlamydial activity of the claimed compounds was studied in respect to C.trachomatis […], which is a standard strain contained in the collection of the department of microbiology of St. Petersburg State Pavlov Medical University. […] Cell cultures McCoy and L929 obtained from the Institute of Cytology of RAS were used in this work. Cells were grown in flasks made of neutral glass in the medium RPMI-1640 containing 10% of fetal calf serum. The test was performed in flat-bottom flasks made of glass (non-toxic), that were supplied with cover glasses. The cells were introduced into the medium in the final concentration of 1x10^6 cell/ml. […] Simultaneously, tested compounds in a final concentration of 100 mg/l were added to the cells. The sample was centrifuged at 2400 G for 60 minutes at a room temperature and incubated at 37°C for 2 hours. […] The samples were doubled using the medium without cycloheximide so as to exclude its effect on the investigated compounds. The samples were incubated for 48 hours in CO2-incubator. The controls included: • 1. Control of cell culture • 2. Control of action of solvents • 3. Control of action of chlamydia in absence of any compounds • 4. […] Control of the tested compounds as to toxicity in respect to the cell culture. Evaluation of the results was carried out by the way of determination of chlamydial cytoplasmatic inclusions (CPI) that was conducted by the method of immunofluorescence (MicroTrack Chlamydia trachomatis Direct Specimen Test), and by the way of determination of chlamydia antigens that was conducted by means of CylaMonoScreen (Russian-British Joint Venture 66 Regent's Parc Road London NW1 7SX). The effect of the action of compound was determined by analysis of the monolayer state and number of cells with CPI when compared with the control (cell culture infected with C.trachomatis […]); in doing so, the number of unchanged cells, that were counted in 100 visual fields obtained using the eyepiece-micrometer, was taken into consideration.

[4] = tested on: alanine-aminotranspherase (AlAT); assay: Hepatoprotective activity, CCl4 liver damage in rats; assay type: in vivo
Experimental: CCl4 dissolved in 50% olive oil (1 ml/kg) was subcutaneously administrated to rats. Test substances were administrated perorally in a dose of 20 mg/kg 30 minutes before and 7 hours after the CCL4 administration. The activity of alanine-aminotranspherase (AlAT), which is a marker enzyme of liver parenchyma damage, was assessed twenty-four hours later. Reducing of enzyme amount by more than 30% relative to the control group was considered as evidence of hepatoprotective properties of the substance. Vitamin E in a dose of 100 mg/kg was used as a reference agent.

[5] = tested on: Mycobacterium tuberculosis H37RV; assay: Antimicrobial action, serial dilution method; assay type: cell-based; settings: 72-hour cultivation at 37°C

Nc1ncnc2c1ncn2[C@@H]1O[C@H](CO)[C@@H](O)[C@H]1O [Adenosine]
inhibition at 5 µg/mL ([1]; Homo sapiens, Platelet, 5 µg/ml): 100%

CC(=O)Oc1ccccc1C(=O)O [Aspirin, aspirin]
inhibition at 9 µg/mL ([1]; Homo sapiens, Platelet, 9 µg/ml): 100%

CCCCOC(=O)Nc1ccc(S(=O)(=O)Nc2ccc([N+](=O)[O-])cc2)cc1 [VII, Carbobutoxysulfanylic acid (4-nitrophenyl)amide]
Quantity of the unchanged cells [2]: 8000
percentage of protection [2]: 80%
Maximal tolerable dose: Concentration of tested compounds at oral introducing [3]: 300 mg/L

CCCCCCOC(=O)Nc1ccc(S(=O)(=O)Nc2ccccc2C)cc1 [XXIX, Carbohexoxysulfanylic acid (2-toluyl)amide]
activity against chlamydia (in words) (C.trachomatis D323): marked biological activity against chlamydia
percentage of cell protection from infection (C.trachomatis D323; 48 hours): 55%
Number of unchanged cells (C.trachomatis D323; counted in 100 visual fields, 48 hours): 4.400
% of reducing AlAT ([4]; perorally 20 mg/kg 30 minutes before and 7 hours after CCl4, AlAT twenty-four hours later, relative to the control group): -36%
Quantity of the unchanged cells [2]: 6000
percentage of protection [2]: 60%
% of inhibition ([1]; 100 µg/ml): 33.3±8.2%

Rifampycin
MIC [5]: 0.05 µg/mL

Vitamin E [reference compound]
% of reducing AlAT ([4]; Vitamin E in a dose of 100 mg/kg, reference agent): -30%
